# From US20250325531A1, “TREATMENT OF SYSTOLIC DYSFUNCTION” (MyoKardia, Inc., priority 2024, published 2025)
# How the values were obtained:
# [1] = test system: patients with stable HFrEF; assay: Safety and tolerability (TEAEs, troponin, ECG, Holter) in SAD cohorts, patients with stable HFrEF; assay type: in vivo, human
# Protocol: Safety and efficacy assessments were conducted by measuring patients' vital signs and laboratory parameters; performing TTE to measure, e.g., systolic ejection time; performing electrocardiograms (e.g., 12-lead ECG), real-time ECG telemetry (e.g., at least 3-lead), and Holter ECG; and measuring levels of troponin (e.g., troponin I and/or troponin T) and 4β-hydroxycholesterol.
# The following safety laboratory parameters were measured: (1) hematology parameters (CBC, including differential count, and platelet count); (2) serum chemistry parameters (e.g., sodium, potassium, chloride, bicarbonate, calcium, magnesium, urea, creatinine, ALP, ALT, AST, total bilirubin, glucose, and CPK); and (3) urinalysis parameters (e.g., pH, protein, glucose, leukocyte cstcrasc, and blood).
# Abnormal and/or rising troponin values (as per investigator's judgment and taking into account potential baseline troponin elevation frequently observed in heart failure) led to the patient being clinically evaluated for possible myocardial ischemia. […] The entire clinical context (e.g., signs, symptoms, new ECG changes, new troponin, and CK-MB abnormalities) was evaluated and correlated with any other relevant clinical findings, patient's medical history, and laboratory data to determine the clinical significance of the findings. Troponin results performed on Day 2 of Part 1 (SAD) and Day 10 of Part 2 (MAD) at a local lab were reviewed prior to the patient being discharged the next day.
# Primary endpoints for this study (safety measures) included the following: treatment-emergent AEs and SAEs; ECG recordings, interpretation, and intervals; vital signs; serum Troponin I concentrations; laboratory abnormalities; and physical examination abnormalities.
# healthy volunteers = assay: Safety and tolerability in food effect study, healthy volunteers; assay type: in vivo, human; settings: 200 mg
# Protocol: ECG was performed as described in Example 1. The following intervals were measured: RR, PR, QRS, and QT. Heart rate (HR) was calculated as […] (with RR expressed in msec) and rounded to the nearest integer. Each individual ECG QT value was corrected for HR. The measured QT data was corrected for HR using the Fridericia method (QTcF) as per the following formulae/method (with QT, RR and QTc expressed in ms): […]
# The Investigator or designee monitored the continuous ECG telemetry data and correlated the finding(s) with any other clinical findings, study participant's medical history, study participant's clinical status and laboratory data to determine the clinical importance of the finding.
# Serum troponin-I concentrations were determined as described in Example 1. Abnormal and/or rising troponin values (as per Investigator's judgment and taking into account potential Baseline troponin elevation) led to the subject being clinically evaluated for possible myocardial ischemia. […] The entire clinical context would be evaluated (e.g., signs, symptoms, new ECG changes, new troponin, and CK-MB abnormalities) and correlated with any other relevant clinical findings, the subject's medical history, and laboratory data to determine the clinical significance of the findings.
# [2] = SAD Cohorts 1 and 2, 175 mg (n = 8)
# [3] = SAD Cohorts 1 and 2, 350 mg (n = 8)
# [4] = SAD Cohorts 1 and 2, 400 mg Split Dose (n = 4)
# [5] = SAD Cohorts 1 and 2, 550 mg Split Dose (n = 2)
# [6] = SAD Cohorts 1 and 2, Total Active (n = 12)
smiles,measurement,setting,value
"Cn1cc(S(=O)(=O)[C@@](C)(F)C2CCN(C(=O)Nc3ccon3)CC2)c(C(F)F)n1 [Compound I, (R)-4-(1-((3-(difluoromethyl)-1-methyl-1H-pyrazol-4-yl)sulfonyl)-1-fluoroethyl)-N-(isoxazol-3-yl) piperidine-1-carboxamide]","maximum troponin I level, one subject","[1]; 550 mg, 24 hours post-dose (4×ULN)",0.12 ng/mL
same,"TEAE: Any SOC, any PT",[1]; [2],2 (25.0) n (%)
same,TEAE: Dyspnea,[1]; [2],1 (12.5) n (%)
same,TEAE: Fatigue,[1]; [2],1 (12.5) n (%)
same,TEAE: Infusion site discomfort,[1]; [2],1 (12.5) n (%)
same,TEAE: Urinary tract infection,[1]; [2],1 (12.5) n (%)
same,"TEAE: Any SOC, any PT",[1]; [3],5 (62.5) n (%)
same,TEAE: Bursitis,[1]; [3],1 (12.5) n (%)
same,TEAE: Diarrhoea,[1]; [3],1 (12.5) n (%)
same,TEAE: Hypomagnesemia,[1]; [3],1 (12.5) n (%)
same,TEAE: Oral contusion,[1]; [3],1 (12.5) n (%)
same,TEAE: Proteinuria,[1]; [3],1 (12.5) n (%)
same,TEAE: Anemia,[1]; [4],1 (25.0) n (%)
same,"TEAE: Any SOC, any PT",[1]; [4],3 (75.0) n (%)
same,TEAE: Neck pain,[1]; [4],1 (25.0) n (%)
same,TEAE: Orthostatic hypotension,[1]; [4],1 (25.0) n (%)
same,TEAE: Ventricular extrasystoles,[1]; [4],1 (25.0) n (%)
same,"TEAE: Any SOC, any PT",[1]; [5],1 (50.0) n (%)
same,TEAE: Cardiac discomfort,[1]; [5],1 (50.0) n (%)
same,TEAE: Dyspnea,[1]; [5],1 (50.0) n (%)
same,TEAE: Troponin increase,[1]; [5],1 (50.0) n (%)
same,TEAE: Anemia,[1]; [6],1 (8.3) n (%)
same,"TEAE: Any SOC, any PT",[1]; [6],10 (83.3) n (%)
same,TEAE: Bursitis,[1]; [6],1 (8.3) n (%)
same,TEAE: Cardiac discomfort,[1]; [6],1 (8.3) n (%)
same,TEAE: Diarrhoea,[1]; [6],1 (8.3) n (%)
same,TEAE: Diverticulitis,[1]; [6],1 (8.3)− n (%)
same,TEAE: Dyspnea,[1]; [6],1 (8.3) n (%)
same,TEAE: Fatigue,[1]; [6],1 (8.3) n (%)
same,TEAE: Hypomagnesemia,[1]; [6],1 (8.3) n (%)
same,TEAE: Infusion site discomfort,[1]; [6],1 (8.3) n (%)
same,TEAE: Neck pain,[1]; [6],1 (8.3) n (%)
same,TEAE: Oral contusion,[1]; [6],1 (8.3) n (%)
same,TEAE: Orthostatic hypotension,[1]; [6],1 (8.3) n (%)
same,TEAE: Proteinuria,[1]; [6],1 (8.3) n (%)
same,TEAE: Troponin increase,[1]; [6],1 (8.3) n (%)
same,TEAE: Urinary tract infection,[1]; [6],1 (8.3) n (%)
same,TEAE: Ventricular extrasystoles,[1]; [6],1 (8.3) n (%)
same,abnormal ECG results,healthy volunteers; fasted state,3 (30.0%) n (%)
same,"drug-related headache, subjects",healthy volunteers; fasted state,3 subjects
same,"headache, subjects",healthy volunteers; fasted state,4 subjects
same,"Cardiac disorders, subjects",healthy volunteers; fasted state (1 sinus tachycardia and 1 ventricular tachycardia),2 subjects
same,abnormal ECG results,healthy volunteers; fed state,2 (20.0%) n (%)
same,"drug-related headache, subjects",healthy volunteers; fed state,1 subject
same,"headache, subjects",healthy volunteers; fed state,1 subject
same,"Cardiac disorders, subjects",healthy volunteers; fed state (palpitations),1 subject
